Assay results from patent publication US20210187046A1, “COCKTAIL COMPOSITIONS COMPRISING RESPIRATORY ANTIBACTERIAL PHAGES AND METHODS OF USE THEREOF” (priority 2019, published 2021).
≈ marks a conversion by molar mass, not a printed value. Read-outs that look alike come from different tables or passages of the source.

Key:
[1] = test system: P. aeruginosa PSA_1992/05; assay: Broth microdilution MIC with and without bacteriophage cocktail; format: cell-based, Pseudomonas aeruginosa
Method: The method was developed and optimized as a proof of concept for P. aeruginosa using a single strain infected by all three phages (PSA_1992/05; NCIMB deposit 42914)). […] Different time points (4 h, 6 h, 12 h and 18 h) were used for optimization of the technique, but final readings were determined at 18 h. All experiments were conducted in duplicates. The study was optimized for the individual bacteriophages and a final assay is presented here containing data for the complete cocktail.

[2] = test system: K. pneumoniae bacterial isolates (n=36); assay: Antibiotic susceptibility testing by disk diffusion; format: cell-based, Klebsiella pneumoniae; conditions: EUCAST cut-off values
Method: A selected group of K. pneumoniae bacterial isolates were collected between 2005 and 2019 (n=36), in at least 7 different health care facilities. Overall, these isolates were collected from hospital settings (n=25), outpatients (n=9), or from unknown origin (n=2), and from a diversity of biological products [urine (n=10), respiratory secretions (n=5), unknown (n=8), abdominal fluids (n=5) and others (n=8)]. This panel was evaluated with regards to antibiotic susceptibility testing by disk diffusion method against a selected panel of clinically important antibiotics (β-lactam antibiotics—ampicillin, ceftazidime, piperacillin with tazobactam, and meropenem; fluoroquinolones—ciprofloxacin; aminoglycosides—gentamicin; and sulphonamides—trimethoprim with sulfamethoxazole). Interpretation of results was performed according to the cut-off values recommended by the European Committee on Antimicrobial Susceptibility Testing (EUCAST, http://mic.eucast.org/Eucast2/). Isolates were considered multidrug resistant (MDR) when presenting non-susceptibility to three or more structurally unrelated classes of antibiotics (Magiorakos A P, Srinivasan A, Carey R B., Carmeli Y, Falagas M E, et al. 2011. Clin Microbiol Infect 2012; 18: 268-281).

[3] = Pseudomonas aeruginosa, No Phage, reading at 18 h, read-out: MIC
[4] = in the presence of bacteriophage cocktail TP-122A at MOI 0.1, 18 h
[5] = in the presence of bacteriophage cocktail TP-122A at MOI 1, 18 h
[6] = in the presence of bacteriophage cocktail TP-122A at MOI 10, 18 h

Compound	MIC [1, 3] [µg/mL]	MIC [1, 4] [µg/mL]	MIC [1, 5] [µg/mL]	MIC [1, 6] [µg/mL]	isolates non-susceptible [2] [%]	MIC ([1]; No Phage, reading at 18 h)	MIC ([1]; Pseudomonas aeruginosa, 18 h) [µg/mL]
NCC[C@H](O)C(=O)N[C@@H]1C[C@H](N)[C@@H](O[C@H]2O[C@H](CN)[C@@H](O)[C@H](O)[C@H]2O)[C@H](O)[C@H]1O[C@H]1O[C@H](CO)[C@@H](O)[C@H](N)[C@H]1O [AK, amikacin]	0.5 (≈ 0.854 µM)	≤0.016	≤0.016	≤0.016	–	–	–
CC(C)(O/N=C(\C(=O)N[C@@H]1C(=O)N2C(C(=O)[O-])=C(C[n+]3ccccc3)CS[C@H]12)c1csc(N)n1)C(=O)O [C/ZD, ceftazidime]	–	≤0.016	≤0.016	≤0.016	86.1	.5 µg/mL (≈ 0.915 µM)	–
CC(=O)NC[C@H]1CN(c2ccc(N3CCOCC3)c(F)c2)C(=O)O1 [LZD, linezolid]	> 32	≤0.016	≤0.016	≤0.016	–	–	–
C[C@@H](O)[C@H]1C(=O)N2C(C(=O)O)=C(S[C@@H]3CN[C@H](C(=O)N(C)C)C3)[C@H](C)[C@H]12 [MEM, meropenem]	0.25 (≈ 0.652 µM)	≤0.016	≤0.016	≤0.016	77.8	–	–
CN[C@H](CC(C)C)C(=O)N[C@H]1C(=O)N[C@@H](CC(N)=O)C(=O)N[C@H]2C(=O)N[C@H]3C(=O)N[C@H](C(=O)N[C@H](C(=O)O)c4cc(O)cc(O)c4-c4cc3ccc4O)[C@H](O)c3ccc(c(Cl)c3)Oc3cc2cc(c3O[C@@H]2O[C@H](CO)[C@@H](O)[C@H](O)[C@H]2O[C@H]2C[C@](C)(N)[C@H](O)[C@H](C)O2)Oc2ccc(cc2Cl)[C@H]1O [VA, vancomycin]	–	≤0.016	≤0.016	≤0.016	–	–	> 32
CC1(C)S[C@@H]2[C@H](NC(=O)[C@H](N)c3ccccc3)C(=O)N2[C@H]1C(=O)O [ampicillin]	–	–	–	–	100	–	–
O=C(O)c1cn(C2CC2)c2cc(N3CCNCC3)c(F)cc2c1=O [ciprofloxacin]	–	–	–	–	91.7	–	–
colistin [CS]	–	≤0.016	≤0.016	≤0.016	–	0.25 µg/mL	–
gentamicin	–	–	–	–	72.2	–	–
piperacillin with tazobactam [TZP]	–	≤0.016	≤0.016	≤0.016	97.2	1 µg/mL	–
trimethoprim with sulfamethoxazole	–	–	–	–	88.9	–	–
